Measured values as given in patent US10576092B1, “Doxorubicin derivatives and uses thereof” (S.S.Manufacturing Co. Ltd, priority 2019, dated 2020).

What was measured:
MCF-7 cells [1] = assay: Fluorescent microscopy of subcellular distribution; assay type: cell-based, human; conditions: 120 μg/ml, observed at 60, 120 and 360 minutes
Description: Low numbers of MCF-7 cells were seeded into 8-well plate (3,000 cells/well) overnight.

MCF-7 cells [2] = assay: Induction of MCF-7 cell apoptosis; assay type: cell-based, human
MCF-7 cells [3] = assay: Cytosolic oxidative stress; assay type: cell-based, human
MCF-7 cells [4] = assay: Cell cycle analysis; assay type: cell-based, human
MCF-7 cells [5] = assay: MTT (WST-1) assay for cytotoxicity effect of compound A on tumor cells; conditions: 24 hours treatment
Description: The human breast cancer cell line, MCF-7, was obtained from American Type Cell Collection (ATCC) (Rockville, Mo., U.S.A.). The cells were cultured to 70-80% confluence in Dulbecco's modified Eagle medium (DMEM) (Gibco, Grand Island, N.Y., U.S.A.) with 10% fetal bovine serum (FBS) (Gibco) at 37° C. and 5% CO2. MCF-7 cells were plated overnight in a 96-well plate (4,000 cells per well). […] Next, 10 μl/well of WST-1/ECS solution from the Quick Cell Proliferation Colorimetric Assay Kit (BioVision, Inc., Milptas, Calif., U.S.A.) was added, and the solution was incubated for 2 hours at 37° C. and 5% CO2. […] The half maximal inhibitory concentrations (IC50s) were calculated from linear regression from the absorbance optical density (OD) of each triplicate concentration.

Description for Lipid solubility in oil: The suspended were vortexed and centrifuged at 3000 RPM, 10 mins periodically. Oil solvent volume was stepwise increased till completely soluble was observed and the soluble concentration were determined (Table1). The solutions were left at 24° C. overnight and were centrifuged at 5000 RPM for 20 mins. […] The suspensions were vigorously vortex and left at room temperature.

Row | Compound | entry into the nucleus (subcellular distribution) (MCF-7 cells [1]) | induction of MCF-7 cell apoptosis (MCF-7 cells [2]) | cytosolic oxidative stress (MCF-7 cells [3]) | interference with the cell cycle (MCF-7 cells [4]) | IC60 (MCF-7 cells [5]) | Solubility in Oil (40° C.) (Lipid solubility in oil; Canola Oil) | Solubility in Oil (40° C.) (Lipid solubility in oil; Ethiodized Oil) | Solubility in Oil (40° C.) (Lipid solubility in oil; Olive Oil)
1 | ((3bS)-7-hydroxy-11a-methyl-1H,2H,3H,3aH,3bH,4H,5H,9bH,10H,11H,11aH-cyclopenta[a]phenanthren-1-yl N-[(2S,3S,6R)-3-hydroxy-2-methyl-6-{[(1S,3S)-3,5,12-trihydroxy-3-(2-hydroxyacetyl)-10-methoxy-6,11-dioxo-1,2,3,4,6,11-hexahydrotetracen-1-yl]oxy}oxan-4-yl]carbamate) [Compound A] | without entering the nucleus | rapidly induced MCF-7 cell apoptosis | increased cytosolic oxidative stress | did not interfere with the cell cycle | ~120 µg/mL | – | – | –
2 | COc1cccc2c1C(=O)c1c(O)c3c(c(O)c1C2=O)C[C@@](O)(C(=O)CO)C[C@@H]3O[C@H]1C[C@H](N)[C@H](O)[C@H](C)O1 [Doxorubicin] | – | – | – | – | – | less than 0.0001 mg/100 ml | less than 0.0001 mg/100 ml | less than 0.0001 mg/100 ml
